# Like-named read-outs stand apart in the source and are kept apart here.
# Legend:
# [1] = system: P. aeruginosa PAM1738 (nfxB, overexpressing MexCD-OprJ); experiment: microbe, parasite or virus in culture; type: cell-based, Pseudomonas aeruginosa
# Method: Stock solutions were further diluted, according to the needs of a particular assay, in Mueller Hinton Broth (MHB). Stock solution was stored at −80° C.
# The checkerboard assay was performed in microtiter plates. […] The result of these manipulations is that each well of the microtiter plate contains a unique combination of concentrations of the two agents. The assay was performed in MHB with a final bacterial inoculum of 5×10^5 CFU/ml (from an early-log phase culture). Microtiter plates were incubated during 20 h at 35° C. and were read using a microtiterplate reader (Molecular Devices) at 650 nm as well as visual observation using a microtiter plate reading mirror.
# The test organisms used was PAM1020, which is a wild type strain of P. aeruginosa expressing the basal level of MexAB-OprM, as well as PAM1723, PAM1738, and PAM1753, overexpressing the MexAB-OprM, MexCD-OprJ, and MexEF-OprN pump, respectively.
# [2] = system: P. aeruginosa PAM1626 (lacks all the three efflux pumps); experiment: microbe, parasite or virus in culture; type: cell-based, Pseudomonas aeruginosa; conditions: for Levofloxacin MIC in the presence of inhibitor: PAM1626
# [3] = system: P. aeruginosa PAM1438 (MexAB-OprM, MexCD-OprJ); experiment: microbe, parasite or virus in culture; type: cell-based, Pseudomonas aeruginosa; conditions: PAM1438
# Method: A set of strains that simultaneously over-expressed pairs or triplicates of pumps, e.g. PAM2302 and PAM2303 was tested. Simultaneous over-expression of efflux pumps has been recently detected in clinical strains.
# [4] = system: 108 recent clinical isolates of P. aeruginosa obtained from cystic fibrosis patients; experiment: Susceptibility of cystic fibrosis clinical isolates (broth-micro-dilution, NCCLS); type: cell-based, Pseudomonas aeruginosa; conditions: 108 CF isolates; pentamidine 20 μg/ml
# PAM1723 cells = experiment: EtBr uptake (proton gradient disruption); type: cell-based, Pseudomonas aeruginosa; conditions: CCCP 50 μg/ml for 15 minutes, pentamidine 80 μg/ml
# Method: A proton gradient is necessary for efflux pump activity. Accordingly, compounds that are capable of proton gradient disruption will appear as efflux inhibitors in accumulation assays. This possibility was tested for pentamidine. EtBr is a substrate of the MexAB-OprM efflux pump from P. aeruginosa as evident from the differential rates of its uptake in PAM 1723 and PAM 1626, MexAB-OprM overexpressing or lacking strains, respectively. CCCP is a well-known protonophore, which rapidly dissipates the proton gradient.
# [5] = for AUC (0-4)/AUC (0-168) / AUC (0-8)/AUC (0-168) / AUC (0-24)/AUC (0-168) / Ke (β): CF sputum, high dose, Mean; for Ke (β): β phase
# [6] = cited from earlier work
# clinical = conditions: human, in vivo
# [7] = system: PAM1626 cells (lacking the efflux pump); experiment: Leu-Nap accumulation assay; conditions: Leu-Nap 100 μg/ml, pentamidine 0 to 80 μg/ml
# Method: Leu-Nap, which is not fluorescent in solution, is cleaved enzymatically inside the cells to produce highly fluorescent β-naphthylamine. The more Leu-Nap enters cells, the more fluorescence is produced. The rate of production of β-naphthylamine (recorded as an increase in fluorescence) is limited by the rate of entry of Leu-Nap into the cell. To assess the uptake of Leu-Nap, cultures of P. aeruginosa were grown to OD600 ˜1, washed and re-suspended in buffer at pH 7.0 containing K2HPO4 50 mM, MgSO4 1 mM, and Glucose 0.4% (Buffer A). Assays were performed in 96-well flat bottom black plates (Applied Scientific or Costar) in a final volume of 200 μl and were initiated by addition of Leu-Nap to suspensions of intact cells to a final concentration of 100-20 μg/ml. Fluorescence was measured on a fMAX spectrofluorometer (Molecular Devices) using excitation of 320 nm and emission of 460 nm.
# [8] = system: outer membrane of P. aeruginosa strain PAM2005; experiment: microbe, parasite or virus in culture; conditions: Pseudomonas aeruginosa, read-out: IC50, permeabilization of the outer membrane
# [9] = Pseudomonas aeruginosa, read-out: MIC* (MIC for the efflux pump inhibitor)
# [10] = 24 hours after 300 mg in a jet nebulizer
smiles,measurement,setting,value
"N=C(N)c1ccc(OCCCCCOc2ccc(C(=N)N)cc2)cc1 [Pentamidine, pentamidine]",Levofloxacin MIC in the presence of inhibitor,"[1]; PAM1738, inhibitor 1.25 μg/ml",0.5 µg/mL
same,Levofloxacin MIC in the presence of inhibitor,"[1]; PAM1738, inhibitor 2.5 μg/ml",0.25 µg/mL
same,Levofloxacin MIC in the presence of inhibitor,"[1]; PAM1738, inhibitor 5 μg/ml",0.25 µg/mL
same,Levofloxacin MIC in the presence of inhibitor,"[1]; PAM1738, inhibitor 10 μg/ml",0.25 µg/mL
same,Levofloxacin MIC in the presence of inhibitor,"[1]; PAM1738, inhibitor 20 μg/ml",0.125 µg/mL
same,Levofloxacin MIC in the presence of inhibitor,"[1]; PAM1738, inhibitor 40 μg/ml",0.03 µg/mL
same,Levofloxacin MIC in the presence of inhibitor,"[1]; PAM1738, inhibitor 80 μg/ml",0.015 µg/mL
same,decrease of levofloxacin MIC,"[1]; PAM1738, pentamidine at 20 μg/ml",4 fold
same,MIC,[1]; [9],> 80 µg/mL
same,Levofloxacin MIC in the presence of inhibitor,[2]; inhibitor 1.25 μg/ml,0.007 µg/mL
same,Levofloxacin MIC in the presence of inhibitor,[2]; inhibitor 2.5 μg/ml,0.007 µg/mL
same,Levofloxacin MIC in the presence of inhibitor,[2]; inhibitor 5 μg/ml,0.007 µg/mL
same,decrease in levofloxacin MIC,[2]; PAM1626 lacking efflux pumps,Almost no decrease
same,MIC,[2]; [9],10 µg/mL
same,Ciprofloxacin MIC w/pentamidine at 20 μg/ml,[3],0.25 µg/mL
same,Levofloxacin MIC w/pentamidine at 20 μg/ml,[3],0.25 µg/mL
same,decrease of MIC50 of levofloxacin and ciprofloxacin,[4],8 fold
same,decrease of MIC90 of levofloxacin and ciprofloxacin,[4],2 fold
same,EtBr uptake,PAM1723 cells,did not result in increased EtBr uptake
same,AUC (0-4)/AUC (0-168),[5]; Aerogen Clinical,46%
same,AUC (0-8)/AUC (0-168),[5]; Aerogen Clinical,61%
same,AUC (0-24)/AUC (0-168),[5]; Aerogen Clinical,77%
same,Ke (β),[5]; Aerogen Clinical,0.070 h⁻¹
same,AUC (0-4)/AUC (0-168),[5]; Respirgard II,30%
same,AUC (0-8)/AUC (0-168),[5]; Respirgard II,41%
same,AUC (0-24)/AUC (0-168),[5]; Respirgard II,66%
same,Ke (β),[5]; Respirgard II,0.074 h⁻¹
same,AUC (0 to 168),"[5]; human, in vivo",57000 ng·h/mL
same,AUC (0 to infinity),"[5]; human, in vivo",57000 ng·h/mL
same,AUC (0 to last non-BLQ),"[5]; human, in vivo",56000 ng·h/mL
same,Tmax (0 to 168),"[5]; human, in vivo",2.3 h
same,high-dose β-phase elimination half-life (sputum),"[5]; human, in vivo",between one and two days
same,concentration in bronchial alveolar lavage fluid sediment,[6]; [10],705 ± 242 ng/mL
same,concentration in bronchial alveolar lavage fluid supernatant,[6]; [10],23.2 ± 7.75 ng/mL
same,trough plasma concentration,[6]; after 3 weeks of daily administration of 3 mg/kg,61.1 ± 56.0 ng/mL
same,concentration at 7 day,clinical,≤ 110 ng/mL
same,half-life,"clinical; 70 mg/4 ml, T1/2 (a), CF sputum, Aerogen Clinical, high dose, a phase 0-8 hours, Mean",2.2 h
same,half-life,"clinical; 70 mg/4 ml, T1/2 (β), CF sputum, Aerogen Clinical, high dose, β phase, Mean",24.4 h
same,half-life,"clinical; 300 mg/6 ml, T1/2 (a), CF sputum, Respirgard II, high dose, a phase 0-8 hours, Mean",2.6 h
same,half-life,"clinical; 300 mg/6 ml, T1/2 (β), CF sputum, Respirgard II, high dose, β phase, Mean",26.7 h
same,AUC(0-t),clinical; AUC (0 to 168),84000 ng·h/mL
same,AUC(0-inf),clinical; AUC (0 to infinity),84000 ng·h/mL
same,AUC(0-t),clinical; AUC (0 to last non-BLQ),83000 ng·h/mL
same,Tmax,clinical; Tmax (0 to 168),1.8 h
same,half-life,clinical; α phase half-life for elimination from sputum,2.2 to 2.6 h
same,effect on Leu-Nap uptake,[7],No such increase
same,IC50,[8],> 64 µg/mL

# — patent US7947741B2, “Use and administration of bacterial efflux pump inhibitors” (Mpex Pharmaceuticals, Inc., priority 2004, dated 2011)
